Reference: patent US20220024980A1, “LIPO-GLYCOPEPTIDE CLEAVABLE DERIVATIVES AND USES THEREOF” (INSMED INCORPORATED, priority 2018, published 2022)
Converted amounts (≈) assume the structure as drawn.

System: MRSA (USA300 ATCC BAA-1556)
Assay: Minimum inhibitory concentrations against MRSA by broth microdilution
Type: cell-based, Staphylococcus aureus
Settings: Mueller Hinton II broth with 0.002% (v/v) Polysorbate-, compound = scaffold with R′ and R″ (table column)
Method: Example 7—Minimum Inhibitory Concentrations Against MRSA Determined Using Broth Microdilution
In vitro activities were determined using CLSJ-guided broth susceptibility testing to measure drug minimum inhibitory concentrations (MICs) of compounds against MRSA (USA300 ATCC BAA-1556). The test medium used for the MIC assay was Mueller Hinton II broth made with 0.002% (v/v) Polysorbate-. Media was prepared fresh on the day of testing and stored according to guidelines from CLSJ.

MIC [µg/mL] | SMILES
0.016 (≈ 0.00955 µM) | CCCCCCCCCCCC(=O)NCCNC1(C)CC(OC2C(Oc3c4cc5cc3Oc3ccc(cc3Cl)C(O)C3NC(=O)C(NC(=O)C5NC(=O)C(CC(N)=O)NC(=O)C(NC(=O)C(CC(C)C)NC)C(O)c5ccc(c(Cl)c5)O4)c4ccc(O)c(c4)-c4c(O)cc(O)cc4C(C(=O)O)NC3=O)OC(CO)C(O)C2O)OC(C)C1O (centres unmarked) [RV62 (R″ = H)]
0.031 (≈ 0.0185 µM) | CCCCCCCCCCCCNC(=O)CNC1(C)CC(OC2C(Oc3c4cc5cc3Oc3ccc(cc3Cl)C(O)C3NC(=O)C(NC(=O)C5NC(=O)C(CC(N)=O)NC(=O)C(NC(=O)C(CC(C)C)NC)C(O)c5ccc(c(Cl)c5)O4)c4ccc(O)c(c4)-c4c(O)cc(O)cc4C(C(=O)O)NC3=O)OC(CO)C(O)C2O)OC(C)C1O (centres unmarked) [RV95 (R″ = H)]
